US4479943A, “3-Demethoxyistamycin B, the 2"-N-formimidoyl derivative thereof and pharmaceutical composition containing same” (Zaidan Hojin Biseibutsu Kagaku Kenkyu Kai, priority 1982, dated 1984)
Converted amounts (≈) assume the structure as drawn.

Experiments:
Escherichia coli NIHJ = experiment: Antibacterial MIC, standard serial dilution; format: cell-based; conditions: nutrient agar, 37° C., 17 hours, as free base
[1] = system: Pseudomonas aeruginosa A3; experiment: Antibacterial MIC, standard serial dilution; format: cell-based; conditions: nutrient agar, 37° C., 17 hours, as free base
[2] = system: Escherichia coli K-12 ML1410; experiment: Antibacterial MIC, standard serial dilution; format: cell-based; conditions: nutrient agar, 37° C., 17 hours, as free base
[3] = system: Pseudomonas aeruginosa No. 12; experiment: Antibacterial MIC, standard serial dilution; format: cell-based; conditions: nutrient agar, 37° C., 17 hours, as free base
[4] = system: Shigella dysenteriae JS11910; experiment: Antibacterial MIC, standard serial dilution; format: cell-based; conditions: nutrient agar, 37° C., 17 hours, as free base
[5] = system: Klebsiella pneumoniae 22#3038; experiment: Antibacterial MIC, standard serial dilution; format: cell-based; conditions: nutrient agar, 37° C., 17 hours, as free base
[6] = system: Escherichia coli K-12 ML1630; experiment: Antibacterial MIC, standard serial dilution; format: cell-based; conditions: nutrient agar, 37° C., 17 hours, as free base
Proteus rettgeri GN311 = experiment: Antibacterial MIC, standard serial dilution; format: cell-based; conditions: nutrient agar, 37° C., 17 hours, as free base
Serratia sp. 4 = experiment: Antibacterial MIC, standard serial dilution; format: cell-based; conditions: nutrient agar, 37° C., 17 hours, as free base
[7] = system: Escherichia coli JR66/W677; experiment: Antibacterial MIC, standard serial dilution; format: cell-based; conditions: nutrient agar, 37° C., 17 hours, as free base
Escherichia coli JR225 = experiment: Antibacterial MIC, standard serial dilution; format: cell-based; conditions: nutrient agar, 37° C., 17 hours, as free base
[8] = system: Pseudomonas aeruginosa ROS 134/PU21; experiment: Antibacterial MIC, standard serial dilution; format: cell-based; conditions: nutrient agar, 37° C., 17 hours, as free base
[9] = system: Corynebacterium bovis 1810; experiment: Antibacterial MIC, standard serial dilution; format: cell-based; conditions: nutrient agar, 37° C., 17 hours, as free base
Salmonella typhi T-63 = experiment: Antibacterial MIC, standard serial dilution; format: cell-based; conditions: nutrient agar, 37° C., 17 hours, as free base
Providencia sp. Pv16 = experiment: Antibacterial MIC, standard serial dilution; format: cell-based; conditions: nutrient agar, 37° C., 17 hours, as free base
[10] = system: Escherichia coli K-12 LA290 R56; experiment: Antibacterial MIC, standard serial dilution; format: cell-based; conditions: nutrient agar, 37° C., 17 hours, as free base
Proteus vulgaris 0X19 = experiment: Antibacterial MIC, standard serial dilution; format: cell-based; conditions: nutrient agar, 37° C., 17 hours, as free base
[11] = system: Pseudomonas aeruginosa 21-75; experiment: Antibacterial MIC, standard serial dilution; format: cell-based; conditions: nutrient agar, 37° C., 17 hours, as free base
[12] = system: Pseudomonas aeruginosa TI-13; experiment: Antibacterial MIC, standard serial dilution; format: cell-based; conditions: nutrient agar, 37° C., 17 hours, as free base
[13] = system: Staphylococcus aureus Smith; experiment: Antibacterial MIC, standard serial dilution; format: cell-based; conditions: nutrient agar, 37° C., 17 hours, as free base
bacteria = conditions: in words; earlier work; cited from earlier work
[14] = system: Bacillus cereus ATCC 10702; experiment: Antibacterial MIC, standard serial dilution; format: cell-based; conditions: nutrient agar, 37° C., 17 hours, as free base
Escherichia coli K-12 = experiment: Antibacterial MIC, standard serial dilution; format: cell-based; conditions: nutrient agar, 37° C., 17 hours, as free base
Serratia sp. SOU = experiment: Antibacterial MIC, standard serial dilution; format: cell-based; conditions: nutrient agar, 37° C., 17 hours, as free base
[15] = system: Staphylococcus epidermidis 109; experiment: Antibacterial MIC, standard serial dilution; format: cell-based; conditions: nutrient agar, 37° C., 17 hours, as free base
[16] = system: Escherichia coli K-12 LA290 R55; experiment: Antibacterial MIC, standard serial dilution; format: cell-based; conditions: nutrient agar, 37° C., 17 hours, as free base
[17] = system: Pseudomonas aeruginosa 99; experiment: Antibacterial MIC, standard serial dilution; format: cell-based; conditions: nutrient agar, 37° C., 17 hours, as free base
Serratia marcescens = experiment: Antibacterial MIC, standard serial dilution; format: cell-based; conditions: nutrient agar, 37° C., 17 hours, as free base
[18] = system: Pseudomonas aeruginosa B-13; experiment: Antibacterial MIC, standard serial dilution; format: cell-based; conditions: nutrient agar, 37° C., 17 hours, as free base
[19] = system: Pseudomonas aeruginosa H9; experiment: Antibacterial MIC, standard serial dilution; format: cell-based; conditions: nutrient agar, 37° C., 17 hours, as free base
[20] = system: Klebsiella pneumoniae PCI602; experiment: Antibacterial MIC, standard serial dilution; format: cell-based; conditions: nutrient agar, 37° C., 17 hours, as free base
[21] = system: Pseudomonas aeruginosa GN315; experiment: Antibacterial MIC, standard serial dilution; format: cell-based; conditions: nutrient agar, 37° C., 17 hours, as free base
[22] = system: Escherichia coli K-12 ML1629; experiment: Antibacterial MIC, standard serial dilution; format: cell-based; conditions: nutrient agar, 37° C., 17 hours, as free base
[23] = system: Pseudomonas maltophilia GN 907; experiment: Antibacterial MIC, standard serial dilution; format: cell-based; conditions: nutrient agar, 37° C., 17 hours, as free base
[24] = system: Bacillus subtilis PCI 219; experiment: Antibacterial MIC, standard serial dilution; format: cell-based; conditions: nutrient agar, 37° C., 17 hours, as free base
[25] = system: Micrococcus flavus FDA 16; experiment: Antibacterial MIC, standard serial dilution; format: cell-based; conditions: nutrient agar, 37° C., 17 hours, as free base
Bacillus anthracis = format: cell-based; conditions: nutrient agar, 37° C., 17 hours, as free base
Proteus rettgeri GN466 = experiment: Antibacterial MIC, standard serial dilution; format: cell-based; conditions: nutrient agar, 37° C., 17 hours, as free base
[26] = system: Mycobacterium smegmatis ATCC 607; experiment: Antibacterial MIC, standard serial dilution; format: cell-based; conditions: nutrient agar, 37° C., 17 hours, as free base
[27] = system: Escherichia coli K-12 J5R11-2; experiment: Antibacterial MIC, standard serial dilution; format: cell-based; conditions: nutrient agar, 37° C., 17 hours, as free base
[28] = system: Pseudomonas aeruginosa PST1; experiment: Antibacterial MIC, standard serial dilution; format: cell-based; conditions: nutrient agar, 37° C., 17 hours, as free base
[29] = system: Pseudomonas aeruginosa H11; experiment: Antibacterial MIC, standard serial dilution; format: cell-based; conditions: nutrient agar, 37° C., 17 hours, as free base
Sarcina lutea PCI 1001 = experiment: Antibacterial MIC, standard serial dilution; format: cell-based; conditions: nutrient agar, 37° C., 17 hours, as free base
[30] = system: Escherichia coli K-12 R388; experiment: Antibacterial MIC, standard serial dilution; format: cell-based; conditions: nutrient agar, 37° C., 17 hours, as free base
Providencia sp. 2991 = experiment: Antibacterial MIC, standard serial dilution; format: cell-based; conditions: nutrient agar, 37° C., 17 hours, as free base
Escherichia coli K-12 R5 = experiment: Antibacterial MIC, standard serial dilution; format: cell-based; conditions: nutrient agar, 37° C., 17 hours, as free base
[31] = system: Staphylococcus aureus FDA 209P; experiment: Antibacterial MIC, standard serial dilution; format: cell-based; conditions: nutrient agar, 37° C., 17 hours, as free base
[32] = system: Salmonella enteritidis 1891; experiment: Antibacterial MIC, standard serial dilution; format: cell-based; conditions: nutrient agar, 37° C., 17 hours, as free base
[33] = system: Bacillus subtilis NRRL B-558; experiment: Antibacterial MIC, standard serial dilution; format: cell-based; conditions: nutrient agar, 37° C., 17 hours, as free base
[34] = system: Pseudomonas aeruginosa K-Ps 102; experiment: Antibacterial MIC, standard serial dilution; format: cell-based; conditions: nutrient agar, 37° C., 17 hours, as free base
Escherichia coli W677 = experiment: Antibacterial MIC, standard serial dilution; format: cell-based; conditions: nutrient agar, 37° C., 17 hours, as free base
[35] = system: Staphylococcus aureus Ap01; experiment: Antibacterial MIC, standard serial dilution; format: cell-based; conditions: nutrient agar, 37° C., 17 hours, as free base

Compound `CNCC1CCC(N)C(OC2C(N)CC(O)C(N(C)C(=O)CNC=N)C2O)O1` (stereo not shown) [Demethyl formimidoyl ista B, 3-O-demethyl-2"-N-formimidoylistamycin B] has an MIC (Escherichia coli NIHJ) of 0.39 µg/mL (≈ 0.969 µM), an MIC [1] of 0.20 µg/mL (≈ 0.497 µM) and an MIC [2] of 1.56 µg/mL (≈ 3.88 µM). It also gave an MIC [3] of 12.5 µg/mL (≈ 31.1 µM), an MIC [4] of 1.56 µg/mL (≈ 3.88 µM) and an MIC [5] of 1.56 µg/mL (≈ 3.88 µM). For the same compound, the MIC [6] was 1.56 µg/mL (≈ 3.88 µM), the MIC (Proteus rettgeri GN311) was 0.39 µg/mL (≈ 0.969 µM) and the MIC (Serratia sp. 4) was 12.5 µg/mL (≈ 31.1 µM). For the same compound, the MIC [7] was 1.56 µg/mL (≈ 3.88 µM), the MIC (Escherichia coli JR225) was 0.39 µg/mL (≈ 0.969 µM) and the MIC [8] was 100 µg/mL (≈ 248 µM). It also gave an MIC [9] of less than 0.20 µg/mL, an MIC (Salmonella typhi T-63) of less than 0.20 µg/mL and an MIC (Providencia sp. Pv16) of 0.78 µg/mL (≈ 1.94 µM). The MIC [10] was 0.78 µg/mL (≈ 1.94 µM), the MIC (Proteus vulgaris 0X19) was 0.39 µg/mL (≈ 0.969 µM) and the MIC [11] was 25 µg/mL (≈ 62.1 µM). The MIC [12] was 12.5 µg/mL (≈ 31.1 µM), the MIC [13] was less than 0.20 µg/mL and the antibacterial activity (bacteria) was “active not only against Pseudomonas aeruginosa but also against a variety of resistant bacteria”. The MIC [14] was 0.78 µg/mL (≈ 1.94 µM), the MIC (Escherichia coli K-12) was 0.78 µg/mL (≈ 1.94 µM) and the MIC (Serratia sp. SOU) was 12.5 µg/mL (≈ 31.1 µM). It also gave an MIC [15] of 0.20 µg/mL (≈ 0.497 µM), an MIC [16] of 0.78 µg/mL (≈ 1.94 µM) and an MIC [17] of 100 µg/mL (≈ 248 µM). The MIC (Serratia marcescens) was 1.56 µg/mL (≈ 3.88 µM), the MIC [18] was 100 µg/mL (≈ 248 µM) and the MIC [19] was 12.5 µg/mL (≈ 31.1 µM). The MIC [20] was 0.78 µg/mL (≈ 1.94 µM), the MIC [21] was 6.25 µg/mL (≈ 15.5 µM) and the MIC [22] was 0.78 µg/mL (≈ 1.94 µM). The MIC [23] was greater than 100 µg/mL, the MIC [24] was 0.20 µg/mL (≈ 0.497 µM) and the MIC [25] was 0.39 µg/mL (≈ 0.969 µM). For the same compound, the MIC (Bacillus anthracis) was 0.39 µg/mL (≈ 0.969 µM), the MIC (Proteus rettgeri GN466) was 0.39 µg/mL (≈ 0.969 µM) and the MIC [26] was 0.39 µg/mL (≈ 0.969 µM). For the same compound, the MIC [27] was 1.56 µg/mL (≈ 3.88 µM), the MIC [28] was 25 µg/mL (≈ 62.1 µM) and the MIC [29] was 25 µg/mL (≈ 62.1 µM). For the same compound, the MIC (Sarcina lutea PCI 1001) was 0.39 µg/mL (≈ 0.969 µM), the MIC [30] was 0.78 µg/mL (≈ 1.94 µM) and the MIC (Providencia sp. 2991) was 0.78 µg/mL (≈ 1.94 µM). It also gave an MIC (Escherichia coli K-12 R5) of 0.78 µg/mL (≈ 1.94 µM), an MIC [31] of 0.39 µg/mL (≈ 0.969 µM) and an MIC [32] of 1.56 µg/mL (≈ 3.88 µM). The MIC [33] was less than 0.20 µg/mL, the MIC [34] was 12.5 µg/mL (≈ 31.1 µM) and the MIC (Escherichia coli W677) was 0.39 µg/mL (≈ 0.969 µM). The MIC [35] was 0.39 µg/mL (≈ 0.969 µM).
